Source: patent US20240207285A1 (Melt Pharmaceuticals, Inc., priority 2022, published 2024)

Tests used:
[1] = system: subjects undergoing cataract extraction with lens replacement (CELR); assay: Phase 2 subjects achieving procedural sedation (RSS 2 or 3 without rescue); assay type: in vivo, human; conditions: Visit 2 (Day 1), Full Analysis Set
Procedure: A Phase 2 efficacy and safety study of the MELT-300 formulation was conducted at nine sites with over 300 enrolled subjects. MELT-300 is a sublingual, needle- and opioid-free formulation for procedural sedation during cataract surgery. […] MELT-300 utilizes fast-dissolving delivery technology (Zydis®, Catalent Inc.) to rapidly dissolve the tablet for absorption across the sublingual mucosa.
(§1) The Phase 2 study was factorial-designed, randomized, double-blind, placebo-controlled, and included parallel-cohorts. […] Primary efficacy endpoints included appropriate sedation during the cataract surgery and management of intraoperative pain during the surgery.
Achievement of procedural sedation was evaluated for each subject (see TABLE 19). Success for procedural sedation for this Phase 2 study was defined as achieving target sedation level (Ramsay Sedation Scale (RSS) scale level 2 or 3) at the start of surgery without the need for rescue sedation medication, and no need for intraoperative rescue sedation medication to maintain target sedation level.

[2] = system: subjects undergoing cataract extraction with lens replacement (CELR); assay: Phase 2 mean intraoperative analgesia by the numeric pain rating scale; assay type: in vivo, human
Procedure: An average of the available timepoints was also calculated.

[3] = system: subjects undergoing cataract extraction with lens replacement (CELR); assay: Phase 2 subject-rated worst pain during surgery by the numeric pain rating scale; assay type: in vivo, human; conditions: carry forward
[4] = system: subjects undergoing cataract extraction with lens replacement (CELR); assay: Phase 2 subjects achieving analgesia response (NPRS <4); assay type: in vivo, human; conditions: Visit 2 (Day 1), observed
Procedure: (§2) The number of subjects achieving analgesia response (observed) in the full analysis set was determined. Success in analgesia response was defined as NPRS <4 at the available at the available four intraoperative timepoints and a failure otherwise (e.g., any interoperative pain rescue was assumed to be a failure. Results are provided in TABLE 24. The number of subjects completing the surgery is provided in TABLE 25, and the number of subjects completing the surgery without interruption is provided in TABLE 26. For this measure, subjects completing the surgery without interruption (other than rescue medication) due to pain or anxiety were considered successes. The number of subjects requiring rescue sedative medication and those requiring analgesic medication are provided in TABLES 27 and 28, respectively. For all TABLES 24-28, p-Values between pairs of treatments were calculated and are provided.

[5] = system: subjects undergoing cataract extraction with lens replacement (CELR); assay: Phase 2 subjects completing the surgery; assay type: in vivo, human; conditions: Visit 2 (Day 1); Full Analysis Set
Procedure: as §2

[6] = system: subjects undergoing cataract extraction with lens replacement (CELR); assay: Phase 2 subjects completing the surgery without interruption; assay type: in vivo, human; conditions: Visit 2 (Day 1); Full Analysis Set
Procedure: as §2

[7] = system: subjects undergoing cataract extraction with lens replacement (CELR); assay: Phase 2 subjects requiring rescue sedative medication; assay type: in vivo, human; conditions: Visit 2 (Day 1)
Procedure: as §2

[8] = system: subjects undergoing cataract extraction with lens replacement (CELR); assay: Phase 2 subjects requiring rescue analgesic medication; assay type: in vivo, human; conditions: Visit 2 (Day 1); Full Analysis Set
Procedure: as §2

[9] = system: subjects undergoing cataract extraction with lens replacement (CELR); assay: Phase 2 subjects wanting study drug again for a second surgery (11-point Likert scale); assay type: in vivo, human
Excerpt: Post-operation, subjects were asked whether they would want the study drug again for a second surgery using an 11-point Likert scale of 0 (not likely at all) to 10 (extremely likely).

[10] = system: subjects undergoing cataract extraction with lens replacement (CELR); assay: Phase 2 subjects receiving opioid concomitant medication postoperatively; assay type: in vivo, human
[11] = system: subjects undergoing cataract extraction with lens replacement (CELR); assay: Phase 2 treatment-emergent ocular adverse events (study eye, non-study eye, either eye); conditions: for Eye disorders, % / General disorders and administration site conditions, % / Infections and infestations, % / Injury, poisoning and procedural complications, % / Investigations, %: system organ class
Procedure: as §1
The study eye (TABLE 31) non-study eye (TABLE 32), or either eye (TABLE 33) was assessed. TEAES were defined as events that started on or after the date of the study drug administration through the end of Visit 4 or early withdrawal. Subjects with one or more adverse event within a level of Medical Dictionary for Regulatory Activities (MedDRA) were counted only once in that level.

[12] = Average of available timepoints, adjusted for site table, carry forward
[13] = Average of available timepoints, carry forward
[14] = Average of available timepoints, observed
[15] = Corneal incision, adjusted for site table, carry forward
[16] = Corneal incision, carry forward
[17] = Insertion of the phacoemulsion probe, adjusted for site table, carry forward
[18] = Insertion of the phacoemulsion probe, carry forward
[19] = Insertion of the phacoemulsion probe, observed
[20] = Insertion of the speculum, adjusted for site table, carry forward
[21] = Insertion of the speculum, carry forward
[22] = Insertion of the speculum, observed
[23] = Insertion of the synthetic replacement lens, adjusted for site table, carry forward
[24] = Insertion of the synthetic replacement lens, carry forward
[25] = Insertion of the synthetic replacement lens, observed
[26] = 11-point Likert scale 0 (not likely at all) to 10 (extremely likely)

CNC1(c2ccccc2Cl)CCCCC1=O (stereo not drawn) [Ketamine 50 mg]
Subjects achieving procedural sedation: No, % [1]: 36.7%
Subjects achieving procedural sedation: Yes, % ([1]; RSS 2 or 3 without rescue sedation): 63.3%
Intraoperative NPRS, LS Mean ([2]; Average of available timepoints, adjusted for site (study center covariate), carry forward): 1.89
Intraoperative NPRS, mean [2, 12]: 2.16
Intraoperative NPRS, median [2, 12]: 1.75
Intraoperative NPRS, mean [2, 13]: 2.16
Intraoperative NPRS, median [2, 13]: 1.75
Intraoperative NPRS, LS Mean ([2]; Average of available timepoints, carry forward, repeated measures model): 2.16
Intraoperative NPRS, mean [2, 14]: 2.00
Intraoperative NPRS, median [2, 14]: 1.75
Intraoperative NPRS, LS Mean ([2]; Average of available timepoints, observed, repeated measures model): 2.22
Intraoperative NPRS, mean [2, 15]: 1.8
Intraoperative NPRS, median [2, 15]: 1.0
Intraoperative NPRS, mean [2, 16]: 1.8
Intraoperative NPRS, median [2, 16]: 1.0
Intraoperative NPRS, mean ([2]; Corneal incision, observed): 1.7
Intraoperative NPRS, median ([2]; Corneal incision, observed): 1.0
Intraoperative NPRS, mean [2, 17]: 2.5
Intraoperative NPRS, median [2, 17]: 2.0
Intraoperative NPRS, mean [2, 18]: 2.5
Intraoperative NPRS, median [2, 18]: 2.0
Intraoperative NPRS, mean [2, 19]: 2.1
Intraoperative NPRS, median [2, 19]: 2.0
Intraoperative NPRS, mean [2, 20]: 1.1
Intraoperative NPRS, median [2, 20]: 1.0
Intraoperative NPRS, mean [2, 21]: 1.1
Intraoperative NPRS, median [2, 21]: 1.0
Intraoperative NPRS, mean [2, 22]: 1.1
Intraoperative NPRS, median [2, 22]: 1.0
Intraoperative NPRS, mean [2, 23]: 3.3
Intraoperative NPRS, median [2, 23]: 3.0
Intraoperative NPRS, mean [2, 24]: 3.3
Intraoperative NPRS, median [2, 24]: 3.0
Intraoperative NPRS, mean [2, 25]: 2.5
Intraoperative NPRS, median [2, 25]: 2.0
Intraoperative NPRS, LS Mean Difference versus placebo ([2]; adjusted for site, carry forward): −0.30
Intraoperative NPRS, LS Mean Difference versus placebo ([2]; carry forward, repeated measures model): −0.32
Intraoperative NPRS, LS Mean Difference versus placebo ([2]; observed, repeated measures model): −0.26
Worst Pain During Surgery, Mean Difference versus placebo [3]: −0.33
Worst Pain During Surgery (NPRS), mean ([3]; Full Analysis Set): 3.7
Worst Pain During Surgery (NPRS), median ([3]; Full Analysis Set): 4.0
Subjects achieving analgesia response: Yes, % ([4]; NPRS <4 at four intraoperative timepoints): 49.4%
Subjects achieving analgesia response: No, % [4]: 50.6%
Subjects completing the surgery: No, % [5]: 0 (0) %
Subjects completing the surgery: Yes, % [5]: 100.0%
Subjects completing the surgery without interruption: No, % [6]: (6.3) %
Subjects completing the surgery without interruption: Yes, % [6]: (93.7) %
Subjects requiring rescue sedative medication: No, % ([7]; Full Analysis Set): (63.3) %
Subjects requiring rescue sedative medication: Yes, % ([7]; Full Analysis Set): (36.7) %
Subjects requiring rescue sedative medication: Intraoperatively, % ([7]; Intraoperatively): (6.3) %
Subjects requiring rescue sedative medication: Pre-operatively, % ([7]; Pre-operatively): (30.4) %
Subjects requiring rescue analgesic medication: No, % [8]: (59.5) %
Subjects requiring rescue analgesic medication: Yes, % [8]: (40.5) %
Want Study Drug Again, mean [9, 26]: 7.6
Want Study Drug Again, median [9, 26]: 10.0
Want Study Drug Again, Mean Difference versus placebo ([9]; unpaired t-test): −0.05
Received Postoperative Opioid on Day 2: No, % ([10]; Day 2): (100.0) %
Received Postoperative Opioid on Day 2: Yes, % ([10]; Day 2): (0.0) %
Received Postoperative Opioid on Day 2-8: No, % ([10]; Day 2-8): (100.0) %
Received Postoperative Opioid on Day 2-8: Yes, % ([10]; Day 2-8): (0.0) %
Cataract operation complication, % ([11]; Either Eye): (0) %
Conjunctivitis bacterial, % ([11]; Either Eye): (1.2) %
Corneal abrasion, % ([11]; Either Eye): (0) %
Corneal oedema, % ([11]; Either Eye): (1.2) %
Endophthalmitis, % ([11]; Either Eye): (1.2) %
Eye pain, % ([11]; Either Eye): (3.5) %
Foreign body sensation in eyes, % ([11]; Either Eye): (0) %
Intraocular pressure increased, % ([11]; Either Eye): (1.2) %
Ocular hypertension, % ([11]; Either Eye): (1.2) %
Pain, % ([11]; Either Eye): (0) %
Paracentesis eye, % ([11]; Either Eye): (0) %
Procedural pain, % ([11]; Either Eye): (0) %
Subjects with Any Treatment-Emergent Ocular AEs, % ([11]; Either Eye): (8.2) %
Vision blurred, % ([11]; Either Eye): (0) %
Eye disorders, % ([11]; Either Eye): (5.9) %
General disorders and administration site conditions, % ([11]; Either Eye): (0) %
Infections and infestations, % ([11]; Either Eye): (2.4) %
Injury, poisoning and procedural complications, % ([11]; Either Eye): (0) %
Investigations, % ([11]; Either Eye): (1.2) %
Conjunctivitis bacterial, % ([11]; Non-Study Eye): (1.2) %
Eye pain, % ([11]; Non-Study Eye): (0) %
Subjects with Any Treatment-Emergent Ocular AEs, % ([11]; Non-Study Eye): (1.2) %
Vision blurred, % ([11]; Non-Study Eye): (0) %
Eye disorders, % ([11]; Non-Study Eye): (0) %
Infections and infestations, % ([11]; Non-Study Eye): (1.2) %
Cataract operation complication, % ([11]; Study Eye): (0) %
Corneal abrasion, % ([11]; Study Eye): (0) %
Corneal oedema, % ([11]; Study Eye): (1.2) %
Endophthalmitis, % ([11]; Study Eye): (1.2) %
Eye pain, % ([11]; Study Eye): (3.5) %
Foreign body sensation in eyes, % ([11]; Study Eye): (0) %
Intraocular pressure increased, % ([11]; Study Eye): (1.2) %
Ocular hypertension, % ([11]; Study Eye): (1.2) %
Pain, % ([11]; Study Eye): (0) %
Procedural pain, % ([11]; Study Eye): (0) %
Subjects with Any Treatment-Emergent Ocular AEs, % ([11]; Study Eye): (7.1) %
Eye disorders, % ([11]; Study Eye): (5.9) %
General disorders and administration site conditions, % ([11]; Study Eye): (0) %
Infections and infestations, % ([11]; Study Eye): (1.2) %
Injury, poisoning and procedural complications, % ([11]; Study Eye): (0) %
Investigations, % ([11]; Study Eye): (1.2) %
Paracentesis eye, % ([11]; printed in the Non-Study Eye table): (0) %
